Experimental data taken from ChEMBL document CHEMBL1129386, “Synthesis and immunostimulating properties of lipophilic ester and ether muramyl peptide derivatives” (J Med Chem, 1996).

Tested on: RAW264.7
Experiment: Concentration of compound which increased the nitrite production in RAW 264.7 mouse monocyte-macrophage line
Type: functional, cell-based

CC(=O)N[C@@H]1[C@@H](OC(C)C(=O)N[C@@H](C)C(=O)N[C@H](CCC(=O)N[C@@H](C)C(=O)O[C@H]2CC[C@@]3(C)C(=CC[C@H]4[C@@H]5CC[C@H]([C@H](C)CCCC(C)C)[C@@]5(C)CC[C@@H]43)C2)C(N)=O)[C@H](O)[C@@H](CO)O[C@@H]1O (stereo partly specified)
Concentration: 1 µM
